Assay results as given in PubChem BioAssay (NCI).
Values joined by “and” are separate entries in the source; they are usually repeats but may differ in a detail not shown here. Equal values may be shown once.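 Interpolation was linear, between the two tested concentrations surrounding the appropriate level; five concentrations were tested over 48 hours in 96-well plates. GI50 = concentration required for 50% inhibition of growth. TGI marks complete inhibition of growth.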

What was measured:
Experiment in all cases: NCI-60 cell line screen, 48 h
HL-60(TB) leukemia = test system: HL-60(TB) leukemia
MCF7 breast = test system: MCF7 breast
MDA-MB-231 breast = test system: MDA-MB-231 breast
HCC-2998 colon = test system: HCC-2998 colon
UACC-257 melanoma = test system: UACC-257 melanoma
U251 CNS = test system: U251 CNS
OVCAR-8 ovarian = test system: OVCAR-8 ovarian
HOP-62 NSCLC = test system: HOP-62 NSCLC
SW-620 colon = test system: SW-620 colon
K-562 leukemia = test system: K-562 leukemia

SMILES	TGI (HL-60(TB) leukemia)	TGI (MCF7 breast)	TGI (MDA-MB-231 breast)	TGI (HCC-2998 colon)	TGI (UACC-257 melanoma)	TGI (U251 CNS)	TGI (OVCAR-8 ovarian)	TGI (HOP-62 NSCLC)	TGI (SW-620 colon)	TGI (K-562 leukemia)	GI50 (HL-60(TB) leukemia)	GI50 (MCF7 breast)	GI50 (MDA-MB-231 breast)	GI50 (HCC-2998 colon)	GI50 (UACC-257 melanoma)	GI50 (U251 CNS)	GI50 (OVCAR-8 ovarian)	GI50 (HOP-62 NSCLC)	GI50 (SW-620 colon)	GI50 (K-562 leukemia)
COC(=O)c1ccc(C)cc1C1CN=NC12Cc1cccc(C)c1C2=O (configuration not stated)	49.8 µM	> 100 µM	> 100 µM	> 100 µM	66 µM	> 100 µM	47.1 µM	> 100 µM	> 100 µM	68.4 µM	–	–	–	–	–	–	–	–	–	–
CNCC(SC)c1ccc(O)c(O)c1 (configuration not stated)	37.5 µM	87.4 µM	> 100 µM	31.2 µM	27.9 µM	> 100 µM	41.4 µM	> 100 µM	46.9 µM	59 µM	–	–	–	–	–	–	–	–	–	–
O=C(CCC(NC(=O)OCc1ccccc1)C(=O)OCc1ccccc1)Nc1cccc(OCc2ccccc2)c1 (configuration not stated)	37.6 µM	41.3 µM	56.5 µM	> 100 µM	55 µM	> 100 µM	78.6 µM	60.1 µM	> 100 µM	52.2 µM	–	–	–	–	–	–	–	–	–	–
COC1OC(C)/C(=N/O)C2OC(C)(C)OC12 (configuration not stated)	> 100 µM	> 100 µM	> 100 µM	> 100 µM	> 100 µM	> 100 µM	> 100 µM	> 100 µM	> 100 µM	> 100 µM	–	–	–	–	–	–	–	–	–	–
O=C(NCc1cn(Cc2cccc(Oc3ccccc3)c2)nn1)c1cccnc1NCc1ccc(Cl)cc1	8.07 µM	> 100 µM	6.14 µM	28.1 µM	> 100 µM	8.7 µM	> 100 µM	> 100 µM	> 100 µM	> 100 µM	3.39 µM	2.99 µM	2.29 µM	4.17 µM	3.83 µM	2.66 µM	3.63 µM	5.69 µM	4.04 µM	3.24 µM
O=C(NNC(=O)c1ccncc1)C(=O)Nc1cc(Cl)c(Cl)cc1Cl	> 100 µM	> 100 µM	> 100 µM	57.8 µM	> 100 µM	> 100 µM	> 100 µM	> 100 µM	> 100 µM	> 100 µM	–	–	–	–	–	–	–	–	–	–
Cc1cc2ccccc2oc(=O)/c1=N\Nc1ccccc1	> 100 µM	> 100 µM	77.9 µM	> 100 µM	> 100 µM	> 100 µM	> 100 µM	46.7 µM	> 100 µM	> 100 µM	–	–	–	–	–	–	–	–	–	–
O=C(Oc1cncc(Cl)c1)c1cc2ccccc2sc1=O	> 100 µM	> 100 µM	> 100 µM	> 100 µM	> 100 µM	> 100 µM	> 100 µM	> 100 µM	> 100 µM	> 100 µM	–	–	–	–	–	–	–	–	–	–
O=C(O)c1c(CC(Cc2ccccc2)C(=O)O)ccc2c1CCC2 (configuration not stated)	> 100 µM	> 100 µM	> 100 µM	> 100 µM	> 100 µM	> 100 µM	> 100 µM	> 100 µM	> 100 µM	> 100 µM	–	–	–	–	–	–	–	–	–	–
CC1(C)Cc2ccccc2C(C)(Cl)C(=O)N1 (configuration not stated)	> 10 µM	> 10 µM	> 10 µM	> 10 µM	> 10 µM	> 10 µM	> 10 µM	> 10 µM	> 10 µM	> 10 µM	–	–	–	–	–	–	–	–	–	–
C[C@H](NC(=O)C(C)(Cc1ccc(O)cn1)NC(=O)c1ccccc1)c1ccccc1 (some centres not stated)	> 100 µM	> 100 µM	> 100 µM	> 100 µM	> 100 µM	> 100 µM	> 100 µM	> 100 µM	> 100 µM	> 100 µM	–	–	–	–	–	–	–	–	–	–
COc1ccc(N=C(C)C(C)=Nc2ccc(OC)cc2)cc1	> 100 µM	> 100 µM	> 100 µM	82.6 µM	> 100 µM	> 100 µM	> 100 µM	> 100 µM	> 100 µM	> 100 µM	–	–	–	–	–	–	–	–	–	–
CN1CCC(O)(OC(=O)C(c2ccccc2)C2(O)CCCC2)CC1 (configuration not stated)	> 100 µM	> 100 µM	> 100 µM	> 100 µM	> 100 µM	> 100 µM	> 100 µM	> 100 µM	> 100 µM	> 100 µM	–	–	–	–	–	–	–	–	–	–
C[C@@H]1C[C@@H]2OC(=O)[C@]3(C)[C@H]2[C@@H](OC3(C)O)[C@]2(C)C(=O)C=C[C@@H]12 (some centres not stated)	11.2 µM	32.7 µM	64.5 µM	35.1 µM	50.2 µM	> 100 µM	> 100 µM	> 100 µM	51.9 µM	2.69 µM	–	–	–	–	–	–	–	–	–	–
CC(C)=CC(=O)OC1C2C(C)=CC(=O)C(O)C2(C)C2C3(O)OCC24C(CC(=O)OC14)C(C)C3O (configuration not stated)	–	0.00664 µM	0.0596 µM and 0.0264 µM	0.0532 µM and 0.0278 µM and 0.0513 µM	0.0436 µM and 0.0432 µM	0.0192 µM and 0.0314 µM	0.125 µM and 0.0247 µM and 0.0683 µM	0.0504 µM and 0.0103 µM and 0.0948 µM	–	0.0775 µM and 0.237 µM	0.02 µM	0.00159 µM	–	0.0229 µM	0.02 µM	0.02 µM	0.0251 µM	0.0315 µM	0.0108 µM and 0.0265 µM	0.02 µM
